Reference: publication PMC7433010, “Exploration of multi‐target effects of 3‐benzoyl‐5‐hydroxychromen‐2‐one in Alzheimer’s disease cell and mouse models” (Aging Cell, 2020)

Key:
[1] = target: T1, His‐tagged ∆K280 TauRD protein (Homo sapiens, UniProt P10636, DEL597-597); test: TEM examination of ΔK280 TauRD aggregates; assay type: biochemical; details: 10 µM
T1 construct: containing residues 244–372 of the full‐length 4R2N Tau441; added start Met (ATG codon in forward primer) (N); made in house; host or cells: E. coli BL21(DE3)pLysS
From the text: For TauRD aggregation examination, the samples of formed fibrils without or with compound addition were placed on a 200-Mesh copper (holey-carbon) grid and viewed on a JEM-1230 transmission electron microscope (JEOL, Tokyo, Japan) at an accelerating voltage of 100 kV.
Figure S3. TauRD-His proteins and Tau aggregation monitored by thioflavin T fluorescence and TEM. (a) SDS-PAGE gel (left) and Western blot (right) of wild type (WT) and ΔK280 TauRD proteins from IPTG-induced bacterial cells. Wild type clone #3 and ΔK280 clone #2 (marked in red) were selected to prepare purified proteins for thioflavin T and TEM studies. (b) Thioflavin T binding assay for TauRD aggregation. TauRD protein (20 μM in 50 μl buffer) was incubated with congo red, licochalcone A, or LM compounds (1−10 μM) at 37°C for 48 h, and aggregation was monitored by measuring thioflavin T fluorescence intensity (n = 3). p values: comparisons between 0 h and 48 h (^###: p < 0.001), wild type versus ΔK280 (^&&&: p < 0.001), or with and without compound addition (**: p < 0.01, ***: p < 0.001). (one-way ANOVA with a post hoc Tukey test) (c) TEM examination of ΔK280 TauRD aggregation without or with congo red and LM-004 (10 μM) addition.

[2] = target: T1, His‐tagged ∆K280 TauRD protein; test: Thioflavin T binding assay for TauRD aggregation; assay type: biochemical; details: 10 µM, 2 days at 37°C; without compound 16,856 AU
From the text: Although known to reduce Aβ neurotoxicity (Lorenzo & Yankner, 1994), congo red was also reported as an agonist to drive aggregation within 293 cells expressing full‐length tau isoform htau40 (Bandyopadhyay, Li, Yin, & Kuret, 2007). Thus, we further examined the effects of congo red and tested chalcones on Tau misfolding using prokaryotic His‐tagged wild‐type (WT) and ∆K280 pET‐28a(+)‐TauRD proteins (Figure S3a) using thioflavin T binding assay and transmission electron microscopy (TEM) examination. […]
For thioflavin T binding assay, TauRD protein (20 μM in final 50 μl) was incubated with tested compounds (1−10 μM) in 150 mM NaCl and 20 mM Tris-HCl, pH 8.0, at 37°C for 48 h to form aggregates. […] Thioflavin T fluorescence intensity of samples was recorded by using a microplate reader (Bio-Tek FLx800), with excitation 420 nm and emission 485 nm filter combination.
Figure S3. TauRD-His proteins and Tau aggregation monitored by thioflavin T fluorescence and TEM. […] TauRD protein (20 μM in 50 μl buffer) was incubated with congo red, licochalcone A, or LM compounds (1−10 μM) at 37°C for 48 h, and aggregation was monitored by measuring thioflavin T fluorescence intensity (n = 3). p values: comparisons between 0 h and 48 h (^###: p < 0.001), wild type versus ΔK280 (^&&&: p < 0.001), or with and without compound addition (**: p < 0.01, ***: p < 0.001). […]

[3] = test system: STZ‐induced hyperglycemic 3 × Tg‐AD mice; test: Open‐field test in STZ‐treated 3 × Tg‐AD mice; assay type: in vivo, mouse; details: day 24; 40 mg/kg i.p.
Experimental: Mice harboring APPSwe, PS1M146V, and […] transgenes (3×Tg-AD) (Oddo et al., 2003) were purchased from the Jackson Laboratory (004807; Bar Harbor, ME, USA). Six-month-old male homozygous 3×Tg-AD mice were group housed at 20–25°C and 60% relative humidity under a daily 12-h light/12-h dark cycle, with assess to food and water ad libitum. Mice were randomly divided into 3 groups: – streptozocin (STZ), STZ, and STZ/LM-031 (n = 10 per group). STZ-induced hyperglycemia was used to accelerate the development of AD phenotype (Chen et al., 2014). Briefly, the mice were fasted for 12 h each day prior to intraperitoneal (i.p.) injection of STZ ([…]; Sigma-Aldrich) or vehicle (0.1 M sodium citrate pH4.5) for 4 times (days 2, 3, 9, and 10) (Chen et al., 2019). Mouse body weight was measured and blood glucose level was measured on days 1, 8, 15, 22, and 29 using a blood glucose meter (Bioland Technology, Taipei, Taiwan). LM-031 (40 mg/kg) or vehicle (DMSO:Cremophor EL:0.9% saline = 1:2:7) was intraperitoneally injected every day for 22 days from days 15 to 36. All animal procedures were ethically approved by the Institutional Animal Care and Use Committee of National Taiwan Normal University, Taipei, Taiwan (Permit Number: 103002) and were conducted in compliance with the ARRIVE (Animal Research: Reporting In Vivo Experiments) guidelines. […]

T1 sequence (P10636 with tags, fused parts or gaps isoform P10636-8 DEL280-280): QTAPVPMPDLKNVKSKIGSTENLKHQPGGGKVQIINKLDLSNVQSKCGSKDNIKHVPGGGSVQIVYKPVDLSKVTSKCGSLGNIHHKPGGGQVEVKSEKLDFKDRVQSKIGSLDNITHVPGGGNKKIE

Tau aggregates by TEM [1] | ΔK280 TauRD aggregation (thioflavin T fluorescence) [2] | Compound | open‐field distance traveled and inactive time [3]
reduced Tau aggregates | 4,774 AU | Nc1c(/N=N/c2ccc(-c3ccc(/N=N/c4cc(S(=O)(=O)O)c5ccccc5c4N)cc3)cc2)cc(S(=O)(=O)O)c2ccccc12 [congo red, reference compound] | –
– | – | O=C(c1ccccc1)c1cc2c(O)cccc2oc1=O [LM‐031, 3‐benzoyl‐5‐hydroxychromen‐2‐one] | No significant change
reduced Tau aggregates | 6,758 AU | COc1ccc(C(=O)/C=C/c2cc(Br)ccc2O)cc1 [LM‐004] | –
